# Source: patent publication US6515025B2, “Use of ethynyl alanine amino diol compounds to inhibit enzymatic conversion of angiotensinogen to angiotensin I” (Pharmacia Corporation, priority 1991, dated 2003)
# Read-outs that look alike come from different tables or passages of the source.
# Assays:
# [1] = Oral bioavailability studies in marmosets (plasma concentration by bioassay); assay type: in vivo; details: plasma
# Procedure: The bioavailability in marmosets and dogs was determined by sampling the blood via the femoral vein at various time points after administering the renin inhibitor compounds of the invention in polyethylene glycol 400 at an intragastric dose of 10 mg/kg or at an intravenous dose of 1 mg/kg. Compound concentration in plasma was determined using the bioassay technique described below. The percent bioavailability was calculated by dividing the area under the concentration-vs.-time curve obtained from the intragastric experiment by the area under the concentration-vs.-time curve obtained from the intravenous experiment (adjusting for different doses), and multiplying the result by 100%. The bioavailibility of Example 1 compound is 27% in marmosets and 33% in dogs.
# Renin inhibitor plasma concentrations were determined by a bioassay. The plasma samples were extracted with acetonitrile and the extract was evaporated to dryness under nitrogen. Residue was dissolved in 4% bovine serum albumin containing 0.9% NaCl and 5% EDTA. The dissolved residue (0.1 ml) was incubated with a reaction mixture containing human plasma (0.12 ml), 5% phenylmethysulfonylfluoride (1.2 ul), 10% neomycin (2.4 ul), 0.5 M TES buffer (pH 7.4, 24 ul), and 0.6 mU/ml recombinant human renin (1000 U/mg, 50 ul) at 37° C. for 90 minutes. The renin activity was determined by a standard angiotensin I radioimmunoassay (New England Nuclear Corp.). The amount of test compound in the plasma was determined by comparing the extent of inhibition of renin activity with that produced by a known amount of test compound added to plasma and analyzed above.
# [2] = target: T1, renin (Cyno Monkey plasma) (Macaca fascicularis, UniProt Q6DLS0); assay: Renin inhibitor species specificity, cyno monkey plasma renin activity; assay type: biochemical
# T1 construct: the animal plasma is the source of both the renin substrate and the renin enzyme; from tissue; host or cells: pooled cynomolgus monkey plasma
# T1 sequence (Q6DLS0 67-406): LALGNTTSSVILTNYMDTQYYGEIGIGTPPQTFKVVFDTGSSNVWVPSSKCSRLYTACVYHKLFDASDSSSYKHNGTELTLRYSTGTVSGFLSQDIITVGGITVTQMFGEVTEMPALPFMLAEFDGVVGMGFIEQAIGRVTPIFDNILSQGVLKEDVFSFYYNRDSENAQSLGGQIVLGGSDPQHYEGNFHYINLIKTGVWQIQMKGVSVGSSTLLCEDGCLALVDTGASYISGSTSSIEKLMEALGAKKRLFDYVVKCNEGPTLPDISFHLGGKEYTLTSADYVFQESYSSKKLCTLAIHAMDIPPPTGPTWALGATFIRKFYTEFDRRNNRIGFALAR
# Procedure: Blood was collected in a 10 ml Becton Dickinson vacutainer tube with 0.1 ml of 15% EDTA (K3) solution (15 mg) from normal animals or high renin animals; i.e., those pre-treated with 5 mg/kg of Lasix® intramuscularly 2 times within a 6 hour interval 24 hours prior to bleeding. The blood was then centrifuged at 2500 RPM for 20 minutes and the plasma from the various species respectively pooled, aliquoted and stored in the freezer. The human plasma source was taking a prescription of an angiotensin converting enzyme inhibitor.
# The plasma renin activity assay is a modification of the human renin inhibition test in that the animal plasma is the source of both the renin substrate and the renin enzyme. In a total volume of 0.1 ml, 90 mM Tris-acetate buffer, pH 7.5, 12 mM sodium EDTA, 0.012 mg/ml neomycin sulfate, 0.9 mg/ml bovine serum albumin, 1.61 mM phenylmethyl sulfonyl fluoride, 4 mM 8-hydroxyquinoline and 0.09 ml of the animal or human plasmas were incubated for 2 hours at 37° C. in a shaking water bath or at 4° C. in an ice bath in the presence or absence of renin inhibitors. The produced angiotensin I was determined by radioimmunoassay (New England Nuclear kit).
# The amount of angiotensin I generated during the 2 hours at 4° C. was usually less than 5% of that activity produced at 37° C.; however, the 4° C. background values were nevertheless subtracted from the 37° C. ones for the 100% activity values. The renin inhibitors were assayed in duplicate using 5 concentrations and the data is expressed as a percent of the 100% total renin activity.
# [3] = marmoset, iv, 1 mg/kg, marmoset, IV at 1 mg/kg, Test Run D table, read-out: Plasma Concentrations, Mean ± SE
# [4] = marmoset, iv, 1 mg/kg, marmoset, IV at 1 mg/kg, Test Run C, individual animals, read-out: Plasma Concentrations
# [5] = marmoset, iv, 1 mg/kg, marmoset, IV at 1 mg/kg, Test Run D, individual animals, read-out: Plasma Concentrations
# [6] = marmoset, oral, 10 mg/kg, marmoset, IG at 10 mg/kg, Test Run B, read-out: Plasma Concentrations, Mean ± SE
# [7] = marmoset, oral, 10 mg/kg, marmoset, IG at 10 mg/kg, Test Run A, individual animals, read-out: Plasma Concentrations
# [8] = marmoset, oral, 10 mg/kg, marmoset, IG at 10 mg/kg, Test Run B, individual animals, read-out: Plasma Concentrations
smiles,measurement,setting,value
"C#CC[C@H](NC(=O)C(CC(=O)N(C)CCN(C)C)Cc1ccccc1)C(=O)NC(CC1CCCCC1)[C@@H](O)C(O)CC(C)C (relative stereo) [Example 1, N1-[1R*-[[[1S,1R*-(cyclohexylmethyl)-2S*,3R*-dihydroxy-5-methylhexyl]amino]carbonyl]-3-butynyl]-N4-[2-(dimethylamino)ethyl]-N4-methyl-2S*-(phenylmethyl)butanediamide]",concentration at 2 h,[1]; [3],1240 ± 271 ng/mL
same,concentration at 3 h,[1]; [3],578 ± 90 ng/mL
same,concentration at 4 h,[1]; [3],691 ± 160 ng/mL
same,concentration at 6 h,[1]; [3],176 ± 31 ng/mL
same,concentration at 2 min,[1]; [4],13700 ng/mL
same,concentration at 30 min,[1]; [4],5860 ng/mL
same,concentration at 1 h,[1]; [4],3090 ng/mL
same,concentration at 3 h,[1]; [4],486 ng/mL
same,concentration at 6 h,[1]; [4],264 ng/mL
same,concentration at 2 min,[1]; [5],4200 ng/mL
same,concentration at 30 min,[1]; [5],1950 ng/mL
same,concentration at 2 h,[1]; [5],554 ng/mL
same,concentration at 6 h,[1]; [5],95 ng/mL
same,concentration at 30 min,[1]; [6],4990 ± 1750 ng/mL
same,concentration at 1 h,[1]; [6],3840 ± 1820 ng/mL
same,concentration at 2 h,[1]; [6],3960 ± 2000 ng/mL
same,concentration at 3 h,[1]; [6],4510 ± 939 ng/mL
same,concentration at 4 h,[1]; [6],3360 ± 1730 ng/mL
same,concentration at 5 h,"[1]; marmoset, oral, 10 mg/kg, marmoset, IG at 10 mg/kg, 5 hr, Test Run B, read-out: Plasma Concentrations, Mean ± SE",2460 ± 1170 ng/mL
same,concentration at 6 h,[1]; [6],3430 ± 457 ng/mL
same,concentration at 8 h,[1]; [6],2610 ± 400 ng/mL
same,concentration at 30 min,[1]; [7],9860 ng/mL
same,concentration at 1 h,[1]; [7],1340 ng/mL
same,concentration at 2 h,[1]; [7],1560 ng/mL
same,concentration at 3 h,[1]; [7],7050 ng/mL
same,concentration at 6 h,[1]; [7],4910 ng/mL
same,concentration at 8 h,[1]; [7],3570 ng/mL
same,concentration at 30 min,[1]; [8],1340 ng/mL
same,concentration at 6 h,[1]; [8],2860 ng/mL
same,concentration at 8 h,[1]; [8],1800 ng/mL
same,bioavailability,"[1]; marmoset, oral, marmosets, IG 10 mg/kg vs IV 1 mg/kg",27%
same,half-life,"[1]; monkey, marmosets, read-out: terminal half-life (converted)",1.5 h
same,Vd,"[1]; monkey, marmosets, read-out: volume of distribution",0.2 L/kg
same,% of Total Renin Activity,[2]; 1 nM,81%
same,% of Total Renin Activity,[2]; 4 nM,51%
same,% of Total Renin Activity,[2]; 16 nM,18%
